Assay results published in patent US20180111991A1, “MODULATORS OF ACTIVIN AND METHODS FOR MODULATING IMMUNE RESPONSES AND T FOLLICULAR HELPER CELLS” (LA JOLLA INSTITUTE FOR ALLERGY AND IMMUNOLOGY, priority 2014, published 2018).
“Also recorded” adds a separate entry of the source.

Experiments:
human naïve CD4 T cells [1] = test: qPCR / flow cytometry of LIF, PRDM1, SLAMF1, ITGβ7 on day 3 differentiated cells; format: cell-based; conditions: for PRDM1 (BLIMP1) expression: RNA-seq and qPCR
Text: FIG. 2A-O: Activin A plays a synergic role with IL-12 and molds the human Tfh gene program. (A-B) Bead purified naïve CD4 T cells from multiple healthy subjects were stimulated by anti CD3/CD28 beads on 96 well plates, in the presence of commercial human recombinant activin A, with or without IL-12. […] A representative donor is shown in (A). Data from 12 donors from 6 independent experiments are shown in (B). […] Data from one experiment representative of two are depicted (n=3). (D) Cells were cultured in vitro with different doses of activin A combined with a fixed amount of IL-12 for 5 days in the presence of anti-activin A mAb MOR8806 (block) or isotype control mAb (isotype). Graphs show mean and SEM from 3 independent experiments (n=8). Dotted lines indicate the average percentages of PD-1^+CXCR5^+ cells induced by IL-12 with isotype control mAb from 8 donors. (E) CCR7 MFI on day 5 in vitro differentiated cells. […] (J) RNA-seq analysis on day 3 in vitro differentiated cells. The “Volcano” plots show the absolute gene expression data set (RPKM) from cells differentiated with activin A and IL-12 versus cells differentiated with beads only. […] (K) Heat-map showing absolute expression (RPKM) of selected Tfh signature genes on cells differentiated with beads only, IL-12, activin A or activin A+IL12. (L and N) Relative expression (2-ΔCt) of LIF and PRDM1 was determined by qPCR. (M and O) SLAMF1 and ITGβ7 expression by flow cytometry. In (L) to (0) all the data were obtained from day 3 in vitro differentiated cells and are from at least 3 or more independent experiments (n=9 or higher). Bars show mean and SEM. * p<0.05, ** p<0.01 and *** p<0.001. RNA was isolated by QIAGEN RNeasy spin columns and reverse-transcribed into cDNA using Superscript II Reverse Transcriptase (Invitrogen). Quantitative real-time PCR of ACTB, LIF, and PRDM1 was performed using the following primers: ACTB forward, [NT], ACTB reverse, [NT] forward, [NT] reverse, [NT]; and PRDM1 forward, [NT], PRDM1 reverse [NT]. Real-time PCR was set up with Applied Biosystem SYBR Green Master Mix.

SMAD2/3 [2] = test: Analysis of phosphorylated SMAD2/3 in tonsil CD4 T cells; format: cell-based, human; conditions: for P-SMAD induction: activin A
Text: (§1) Fresh PBMCs and tonsil mononuclear cells were serum-starved over night in AIM-V medium. […] Following stimulation, the cells were fixed in BD Phosflow™ Fix Buffer I (BD Biosciences), then permeabilized using BD Phosflow™ Perm Buffer III (BD Biosciences) following manufacture's instruction.

mouse naïve CD4 T cells = test: Mouse CD4 T cell differentiation; format: cell-based, mouse (BALB/c, C57BL/6)
Protocol: Naïve CD4^+ T cells were isolated from spleen using the Naïve CD4^+ T cell isolation kit (Stem Cell). Purity was 92% or higher. Naïve CD4^+ T cells (2×10^5 cells/well) were cultured for 3 days with recombinant human/mouse/rat activin A (50 ng/ml, R&D Systems), recombinant mouse IL-12 (10 ng/ml, Peprotech), and/or recombinant mouse IL-6 (20 ng/ml, Peprotech) in the presence of plate-bound anti-mouse-CD3 mAb (8 μg/ml, clone 145-2C11, BioXcell) and anti-mouse-CD28 (8 μg/ml, clone 37.51, BioXcell), in RPMI medium, supplemented with 10% fetal bovine serum, GlutaMAX, penicillin/streptomycin, and 2.5 μM β-mercaptoethanol. After 3 days, cells were removed from stimuli and further cultured for 2 additional days in IL-2 (50 U/mL,) and the same cytokine combination used at day 0. Phenotype was quantified by FACS at day 5 of the in vitro culture.

human naïve CD4 T cells [3] = test: CXCL13 ELISA on supernatants of differentiated CD4 T cells; format: cell-based; conditions: plate bound anti-CD3 and ICOS-L, 5 days
Protocol: Unless differently specified, naïve CD4^+ T cells were enriched from PBMCs by magnetic bead negative selection with the Naïve CD4^+ T Cell Isolation Kit (Stem Cell Technologies). Purity (CD4^+CD45RA^+) was 90% or higher. Cells (7.5×10^4 cells/well) were activated by Dynabeads Human T-Activator CD3/CD28 (2 μl/well, Life Technologies) and cultured with recombinant human/mouse/rat activin A (50 ng/ml or 100 ng/ml), recombinant human IL-12 (5 ng/ml), recombinant human TGFβ (1 ng/ml), recombinant human IL-23 (10 ng/ml) or recombinant human IL-35 (10 ng/ml) in the presence of and recombinant human IL-7 (4 ng/ml) in AIM-V medium (Life Technologies). All cytokines were from R&D System and Peprotech. The 14 kDa mature human beta A chain of human activin A shares 100% amino acid sequence identity with bovine, feline, mouse, porcine, and rat beta A. Phenotype was quantified after 3 or 5 days, as specified in the main text of Figure legends. […] For experiments quantifying supernatant CXCL13 concentration, cells were activated by plate-bound anti-human CD3 (5 μg/ml, BD) and ICOS-L (5 μg/ml, recombinant human B7-H2, R&D). CXCL13 concentrations were determined via human CXCL13 DuoSet ELISA (R&D) on supernatants harvested after 5 days of in vitro culture. […]

[4] = system: autologous memory B cells; test: T-B co-culture, B cell help; format: cell-based, human; conditions: CD4 T cells differentiated with activin A+IL-12, 7 days with SEB
SMAD2/3 [5] = test: Analysis of phosphorylated SMAD2/3 in blood naïve CD4 T cells; format: cell-based, human
Text: as §1

## activin A: commercial recombinant cytokine, homodimer of the INHBA gene product (inhibin beta A)
Human naïve CD4 T cells [1]; CD4 T cells cultured with activin A
  LIF and LTα expression: enhanced CD4 T cell expression of LIF and LTα
Human naïve CD4 T cells [1]; day 3 differentiated cells
  PRDM1 (BLIMP1) expression: express less PRDM1 (Blimp1)
Human naïve CD4 T cells [1]; day 3 differentiated cells, listed as Activin A
  PRDM1 (BLIMP1) expression: significant downregulation of PRDM1
Human naïve CD4 T cells [1]; day 3 differentiated cells, flow cytometry
  ITGβ7 expression: downregulated in the presence of activin A
SMAD2/3 [2]; tonsil PD-1intCXCR5int mTfh cells
  P-SMAD induction: moderate but specific P-SMAD induction
SMAD2/3 [2]; tonsil fully mature GC Tfh cells
  P-SMAD induction: did not
SMAD2/3 [2]; tonsil naïve CD4 T cells cultured with activin A
  phosphorylation of SMAD2/3: quickly phosphorylated SMAD2/3
Mouse naïve CD4 T cells; activin A in the presence of IL-6
  in vitro mouse Tfh differentiation: did not result in activin A mediated promotion of in vitro mouse Tfh differentiation
Mouse naïve CD4 T cells; mouse CD4 T cells, activin A alone or with IL-12, C57BL/6 and BALB/c
  PD-1 and CXCR5 expression: did not have any relevant effect on PD-1 and CXCR5 expression by mouse CD4 T cells; also recorded: No relevant CXCR5 and PD-1 induction
Human naïve CD4 T cells [3]
  CXCL13 expression / secretion: selectively induces CXCL13 expression
[4]
  B cell help (B cell proliferation and survival, plasmablast differentiation, IgG production): functionally competent B cell helpers
SMAD2/3 [5]; blood naïve CD4 T cells, activin A 400 ng/ml
  phosphorylation of SMAD2/3: Phosphorylation of SMAD2/3 in naïve human CD4 T cells in response to activin A was observed
SMAD2/3 [5]; downstream of activin A, time points analyzed
  induction of SMAD-independent pathways: No relevant induction of SMAD-independent pathways
